Data reported in patent US20100035793A1, “Modulators” (priority 2005, published 2010).

Assays:
KF48 keloid fibroblasts [1] = assay: XTT proliferation assay; assay type: cell-based, human
Excerpt: Inhibition of Stat3 decreases cell proliferation. Enhanced fibroblast proliferation is a characteristic of keloid tissue. In agreement with this, keloid fibroblasts grown in normal culture conditions proliferated faster than normal fibroblasts, as observed in KF48 and KF107 compared to NF2 and NF4 (FIG. 6A). To investigate whether Stat3 is involved in the enhanced keloid fibroblast proliferation, KF48 was infected with retrovirus expressing Stat3 siRNAs, and cell proliferation was examined. […] XTT proliferation assay. Cells seeded at 3,000 cells/well in 96-well plates and grown in normal growth conditions, or infected with retroviral Stat3 siRNAs, were assayed for proliferation using the XrT proliferation kit (Roche) according to the manufacturer's instructions. The readings were taken at 450 nm and referenced against 690 nm, 2 h after the addition of the XrT reagent. Each sample was performed at quadruplicates in two to three independent experiments. Data are presented as mean±SD
Cell proliferation was also investigated by treating KF48 cells with various doses of Cucurbitacin I or with DMSO control, before incubating in normal growth media and examined daily over 4 days. Cucurbitacin I concentration as low as I μM was able to inhibit cell proliferation of KF48 compared to DMSO and untreated control (0 μM), whereas Cucurbitacin I exposure at 5 μM and above seemed to cause cell death (FIG. 6C).

Stat3 [2] = biological target: T1, Stat3 (Homo sapiens, UniProt P40763); conditions: cited from earlier work
Target sequence in this assay (P40763 whole entry, species assumed): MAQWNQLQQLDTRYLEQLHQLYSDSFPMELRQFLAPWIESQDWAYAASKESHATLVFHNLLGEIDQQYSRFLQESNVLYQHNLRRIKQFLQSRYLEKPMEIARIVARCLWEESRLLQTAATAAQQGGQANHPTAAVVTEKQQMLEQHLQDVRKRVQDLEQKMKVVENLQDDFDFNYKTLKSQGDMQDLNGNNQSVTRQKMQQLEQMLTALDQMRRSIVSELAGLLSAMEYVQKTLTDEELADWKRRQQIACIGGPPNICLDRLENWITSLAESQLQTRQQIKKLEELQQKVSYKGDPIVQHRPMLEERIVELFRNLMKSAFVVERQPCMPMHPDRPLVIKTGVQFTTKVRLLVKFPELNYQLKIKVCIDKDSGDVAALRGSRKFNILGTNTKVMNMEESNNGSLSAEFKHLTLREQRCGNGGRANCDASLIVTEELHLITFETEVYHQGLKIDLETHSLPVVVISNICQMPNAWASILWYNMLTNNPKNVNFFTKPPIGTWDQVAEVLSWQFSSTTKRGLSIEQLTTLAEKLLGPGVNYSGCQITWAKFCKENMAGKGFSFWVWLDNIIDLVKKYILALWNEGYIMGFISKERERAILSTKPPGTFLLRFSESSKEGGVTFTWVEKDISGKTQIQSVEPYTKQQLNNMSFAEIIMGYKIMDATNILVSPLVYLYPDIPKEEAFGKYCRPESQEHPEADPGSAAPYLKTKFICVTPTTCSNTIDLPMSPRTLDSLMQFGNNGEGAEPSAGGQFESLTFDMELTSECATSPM

JAK2 = JAK2 (Homo sapiens, UniProt O60674); conditions: cited from earlier work
Chain of JAK2 (O60674 whole entry, species assumed): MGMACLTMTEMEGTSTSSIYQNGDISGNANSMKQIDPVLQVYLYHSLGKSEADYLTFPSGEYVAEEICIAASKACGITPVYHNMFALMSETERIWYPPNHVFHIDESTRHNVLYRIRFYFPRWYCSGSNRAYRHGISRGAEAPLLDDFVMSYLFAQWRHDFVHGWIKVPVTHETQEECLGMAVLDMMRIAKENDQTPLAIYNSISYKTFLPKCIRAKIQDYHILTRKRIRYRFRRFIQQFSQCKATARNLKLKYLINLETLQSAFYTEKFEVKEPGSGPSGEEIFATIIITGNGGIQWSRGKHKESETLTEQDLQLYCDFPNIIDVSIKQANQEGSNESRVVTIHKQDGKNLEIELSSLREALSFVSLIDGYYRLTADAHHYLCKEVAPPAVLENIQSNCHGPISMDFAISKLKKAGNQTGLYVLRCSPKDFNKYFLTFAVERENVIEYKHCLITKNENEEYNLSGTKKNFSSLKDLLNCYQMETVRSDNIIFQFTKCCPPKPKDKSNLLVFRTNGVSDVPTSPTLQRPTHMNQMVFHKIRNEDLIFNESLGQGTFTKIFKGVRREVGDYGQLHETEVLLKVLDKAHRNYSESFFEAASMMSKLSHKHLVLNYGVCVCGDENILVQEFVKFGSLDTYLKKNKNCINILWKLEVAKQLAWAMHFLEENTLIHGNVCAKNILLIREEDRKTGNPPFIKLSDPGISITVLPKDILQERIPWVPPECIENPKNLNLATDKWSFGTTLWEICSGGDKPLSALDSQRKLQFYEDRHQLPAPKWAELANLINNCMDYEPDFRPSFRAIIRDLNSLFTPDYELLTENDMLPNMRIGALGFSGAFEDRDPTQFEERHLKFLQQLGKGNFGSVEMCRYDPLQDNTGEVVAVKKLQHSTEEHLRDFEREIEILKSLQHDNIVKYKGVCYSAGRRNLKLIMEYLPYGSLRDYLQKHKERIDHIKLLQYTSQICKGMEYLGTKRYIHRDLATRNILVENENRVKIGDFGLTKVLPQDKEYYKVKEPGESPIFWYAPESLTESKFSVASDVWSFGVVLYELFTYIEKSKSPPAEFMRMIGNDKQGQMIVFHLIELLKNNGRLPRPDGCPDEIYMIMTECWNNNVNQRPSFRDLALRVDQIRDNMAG

collagen = assay: Western blot of collagen production in KF48 keloid fibroblasts; assay type: cell-based, human; conditions: KF48, Cucurbitacin I 30 min then 48 h in growth media, FIG. 5B
Method: These vectors containing Stat3 siRNA targets and empty vector were transfected into 293T-based Phoenix-Ampho packaging cell line for 7-9 h, and the amphotropic retroviruses were harvested 48 h later, pelleted to remove nonadherent cells and cellular debris, and filtered through a […] cellulose acetate membrane. The keloid fibroblasts were infected overnight in the presence of 4 μg/ml polybrene, and replaced with fresh 10% FBS/DMEM the following day. Cells were assayed for Western blot 48 h after infection, or for XTT cell proliferation, or for migration assay which was performed by replating the cells into 8 μM Transwell membrane and fixed 24 h later as described above.
(§1) Inhibition of Stat3 was also evaluated by incubating KF48 for 30 min with various doses of Cucurbitacin I, an inhibitor of Jak2/Stat3 activation (32), or with DMSO alone as a control, followed by further incubation in normal growth media for 48 h. […] Cucurbitacin I was acquired from Galchimia (A Corufia, Spain).
Western blot. Cells were either harvested in radioimmune precipitation assay (RIPA) buffer (150 mM NaCl, 50 mM Tris-HCl, pH 7.2, 1% deoxycholic acid, 1% Triton X-100, 0.25 mM EDTA, pH 8.0) containing protease inhibitor cocktail (Roche Diagnostics Corporation, Indianapolis, Ind., USA), or lysis buffer containing 150 mM NaCl, 10 mM Tris-HCl, pH 7.4, 0.5% Triton-X-100, 0.5% NP-40, 1 mM EDTA, 0.2 mM sodium vanadate, supplemented with protease inhibitor tablet. Total cell lysates were collected after centrifugation for 10 min at 4° C., and resolved in 7.5% or 10% polyacrylamide gel electrophoresis, and transferred to PVDF membranes (Bio-Rad Laboratories, Hercules, Calif., USA). The membranes were blotted with anti-phosphoTyr705 Stat3 antibody (1:1000 dilution; Cell Signaling, Beverly, Mass., USA) overnight at 4° C. overnight in PBS containing 1% BSA and 0.1% Tween 20, washed with PBS containing 0.2% Tween 20, and incubated with secondary anti-rabbit IgG antibody (1:2000 dilution; Sigma, Saint Louis, Mo., USA) for 1 h at room temperature, washed with PBS containing 0.2% Tween 20, followed by enhanced chemiluminescence (Amersham Biosciences, Buckinghamshire, UK) or Lumi-Light (Roche Diagnostics Corporation, Indianapolis, USA), and autoradiography. […]
Methods of assessing polypeptides regulated by STAT Collagen may be regulated by STAT 3 activation. monoclonal anti-human collagen I, II, III Was purchased from MONOSAN (Uden, Netherlands). […] These were detected via western blot as described above.

Stat3 [3] = biological target: T1, Stat3; assay: Western blot of Stat3 phosphorylation and expression in KF48 treated with Cucurbitacin I; assay type: cell-based; parameters: primary fibroblasts derived from normal skin and keloid tissues were further examined; endogenous in cells; host or cells: KF48 primary keloid fibroblasts
Method: as §1
Target sequence in this assay (P40763 whole entry): as the sequence (P40763 whole entry, species assumed) above
Western blot. Cells were either harvested in radioimmune precipitation assay (RIPA) buffer (150 mM NaCl, 50 mM Tris-HCl, pH 7.2, 1% deoxycholic acid, 1% Triton X-100, 0.25 mM EDTA, pH 8.0) containing protease inhibitor cocktail (Roche Diagnostics Corporation, Indianapolis, Ind., USA), or lysis buffer containing 150 mM NaCl, 10 mM Tris-HCl, pH 7.4, 0.5% Triton-X-100, 0.5% NP-40, 1 mM EDTA, 0.2 mM sodium vanadate, supplemented with protease inhibitor tablet. Total cell lysates were collected after centrifugation for 10 min at 4° C., and resolved in 7.5% or 10% polyacrylamide gel electrophoresis, and transferred to PVDF membranes (Bio-Rad Laboratories, Hercules, Calif., USA). The membranes were blotted with anti-phosphoTyr705 Stat3 antibody (1:1000 dilution; Cell Signaling, Beverly, Mass., USA) overnight at 4° C. overnight in PBS containing 1% BSA and 0.1% Tween 20, washed with PBS containing 0.2% Tween 20, and incubated with secondary anti-rabbit IgG antibody (1:2000 dilution; Sigma, Saint Louis, Mo., USA) for 1 h at room temperature, washed with PBS containing 0.2% Tween 20, followed by enhanced chemiluminescence (Amersham Biosciences, Buckinghamshire, UK) or Lumi-Light (Roche Diagnostics Corporation, Indianapolis, USA), and autoradiography. The membranes were stripped with Restore Western Blotting Stripping Buffer (Pierce, Rockford, Ill., USA) according to manufacturer's instructions and reblotted with anti-phosphoSer727 Stat3 (1:1000 dilution; Cell Signaling, Beverly, Mass., USA) and secondary anti-mouse IgG antibody (1:2000 dilution; Sigma, Saint Louis, Mo., USA). The stripping and reblotting procedure was repeated with monoclonal anti-Stat3 (1:1000 dilution; BD Transduction Laboratories), polyclonal anti-actin (1:1000 dilution; Sigma) and monoclonal anti-collagen antibody (1:1000 dilution; MONOSAN).

[4] = test system: A549 human lung carcinoma cells; parameters: dose or concentration left out as unconfirmed; conditions: Cucurbitacin I for 24 h; cited from earlier work
A549 tumor = conditions: nude mice; cited from earlier work
KF48 keloid fibroblasts [5] = assay: Scratch-wound migration assay; assay type: cell-based, human
Method: Cell migration in keloidflbroblasts is inhibited by Stat3 siRNA and Cucurbitacin I. To examine the role of Stat3 in cell migration of skin fibroblasts, KF48 cells were infected with retrovirus expressing Stat3 siRNAs and scratch assays were performed as previously described. […] Three non-overlapping fields were acquired, and graphically illustrated as mean±SD in FIG. 8B. Transmembrane cell migration assays were also performed in triplicates as described earlier, and quantified as mean±SD (FIG. 8C). […] The right panels in FIG. 8B and 8C depict immunoblots of Stat3 and actin to show the efficiencies of inhibition by the Stat3 siRNAs.
The role of Stat3 in cell migration was also examined using Cucurbitacin I in the scratch assay. KF48 cells were first incubated with 10 μg/ml mitomycin C for 2 h, before treating for 30 min with DMSO or 1 μM Cucurbitacin I. The scratch-wound was performed, followed by further incubation in normal growth media. Pictures were taken at 0 h, 22 h and 48 h after wounding.
Migration assay. For migration assay using the scratch method, cells were grown to confluence and incubated with 10 μg/ml mitomycin C for 2 h, before a scratch wound was introduced using a yellow pipette tip. Cells were further incubated in normal growth media and pictures were taken at 0 h, 14 h, 15 h, 22 h, or 48 h after wounding. Three non-overlapping fields were captured by Axiovert 135 microscope from Zeiss and cells migrated into the wound site were counted and presented as mean±SD.

[6] = KF48, 30 min treatment then 48 h in growth media, FIG. 5B

CC(C)(O)/C=C/C(=O)[C@](C)(O)[C@H]1[C@H](O)C[C@@]2(C)[C@@H]3CC=C4[C@@H](C=C(O)C(=O)C4(C)C)[C@]3(C)C(=O)C[C@]12C [Cucurbitacin I]
exposure that seemed to cause cell death (KF48 keloid fibroblasts [1]; KF48, FIG. 6C): ≥ 5 µM
concentration as low as, able to inhibit cell proliferation (KF48 keloid fibroblasts [1]; KF48, examined daily over 4 days, vs DMSO and untreated): 1 µM
observations at higher doses (KF48 keloid fibroblasts [1]; higher doses, FIGS. 6C and 8D): cell morphology changes and the beginning of some cell death
inhibition of activation of STAT 3 (Stat3 [2]): inhibit
inhibition of activation of JAK2 (JAK2): inhibit
potency on pJak2 relative to pSTAT 3 (JAK2): more potent inhibitor of pJak2 than pSTAT 3
inhibition of collagen production (collagen): dose-dependent inhibition
effective concentration as low as (inhibition of pY705 Stat3, pS727 Stat3 and collagen production) (Stat3 [3]; KF48, 30 min treatment then 48 h): 1 μM
Stat3 expression (Stat3 [3]; KF48, 30 min treatment then 48 h, FIG. 5B): dose-dependent decrease
inhibition of pS727 Stat3 (Stat3 [3]; [6]): dose-dependent inhibition
inhibition of pY705 Stat3 (Stat3 [3]; [6]): dose-dependent inhibition
apoptosis [4]: 9.8%
tumor cell death [4]: 33%
inhibition of A549 tumor growth (A549 tumor): 55.4%
cell migration at 22 h (KF48 keloid fibroblasts [5]; 1 μM for 30 min, 22 h after wounding, vs DMSO, P<0.001): significant reduction in cell migration
cell migration at 48 h (KF48 keloid fibroblasts [5]; 1 μM for 30 min, 48 h after wounding, vs DMSO): delayed migration
migration of KF48, scratch assay (KF48 keloid fibroblasts [5]; 1 μM for 30 min, compared to DMSO control, FIG. 8D): decelerated the migration
concentration as low as, effective in decreasing rate of migration to that of normal fibroblasts (KF48 keloid fibroblasts [5]; keloid fibroblasts): 1 µM
